Common to all, as to experiment: NCI anticancer screen, dose series, 48 h
The subject of assay [1] is A549 NSCLC.
Assay [2] relates to BT-549 breast.
Assay [3] relates to CAKI-1 renal.
For assay [4], the system named is HL-60(TB) leukemia.
The test system of assay [5] is K-562 leukemia.
Assay [6] concerns NCI-H460 lung.
For assay [7], the system named is SK-MEL-28 melanoma.
For assay [8], the system named is SNB-19 CNS.
Assay [9] relates to SW-620 colon.
Assay [10] deals with TK-10 renal.

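The compound was tested at five concentrations on cells cultured in 96-well plates, with a 48-hour exposure period. The concentration for 50% growth inhibition is given as GI50. Definition used: TGI = concentration required for complete inhibition of growth.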

On to `COC(=O)C1C(O)C(C(=O)OC)C(C)N(C)C1C` (centres undefined), for which the TGI in [1], in assay [2], in assay [3], in assay [4], in [5] and in [6] was more than 100 µM in each case. Further, the TGI in assay [7], in assay [8], in assay [9] and in [10] was more than 100 µM throughout.
Take `O=C(c1ccco1)c1c(C(F)(F)F)n([O-])c2ccc(C(F)(F)F)cc2[n+]1=O`: the GI50 in assay [1] is 0.254 µM; in assay [2], 0.177 µM; in [3], 224 nM; in assay [4] it was 69.6 nM; in assay [5], 0.287 µM; in [6] it was 0.434 µM. Also, the GI50 is 0.717 µM in [7], 1.51 µM in assay [8], 0.159 µM in assay [9] and 0.926 µM in [10]. Moreover, the TGI in assay [1] is 0.7 µM; in assay [2], 0.339 µM; in assay [3], 0.49 µM; in assay [4] it was 0.31 µM; in [5] it was 0.765 µM; in assay [6] it was 1.57 µM. In addition, the TGI in assay [7] is 1.91 µM; in [8], 2.92 µM; in assay [9], 0.338 µM; in assay [10], 2.3 µM.
Regarding `O=C(Nc1cc(Cl)ccc1O)c1ccc(Nc2ccnc(C(F)(F)F)c2)cc1`, the GI50 in assay [1] is 3.97 µM; in assay [2] it was 2.21 µM; in [3], 2020 nM; in assay [4] it was 1250 nM; in assay [5], 2.89 µM; in [6] it was 2.49 µM. Further, the GI50 in [7] is 4.6 µM; in assay [8], 2.15 µM; in assay [9] it was 3.73 µM; in assay [10], 2 µM. Besides, the TGI in assay [1] was more than 100 µM; in [2], 6.88 µM; in assay [3] it was 7.77 µM; in assay [4], 4.42 µM; in [5], more than 100 µM; in assay [6], 6.91 µM. In addition, the TGI in [7] is more than 100 µM; in [8], 7.78 µM; in assay [9], more than 100 µM; in assay [10] it was 7.89 µM.
Take `Nc1cc2c(cc1Br)[nH]c(=O)c1ccccc12`: the GI50 is 2.91 µM in assay [1]; 12.3 µM in assay [2]; 5390 nM in assay [3]; 10800 nM in assay [4]; 5.78 µM in assay [5]; 3.66 µM in assay [6]. The GI50 was 4.25 µM in assay [7], 5.25 µM in [8], 7.73 µM in assay [9] and 4.27 µM in assay [10]. The TGI in assay [1] was 11.4 µM; in assay [2], 31.4 µM; in assay [3], 53.4 µM; in [4] it was 54.3 µM; in [5], more than 100 µM; in [6] it was 18.5 µM. Also, the TGI came out at 15.5 µM in [7], 20.2 µM in [8], 29 µM in assay [9] and 32.7 µM in assay [10].
Take `CCC/C=C/C=C/C1CC(O)C(O)C(=O)C1CO` (centres undefined): the TGI in assay [1], in assay [2], in assay [3], in assay [4], in assay [5] and in [6] was more than 100 µM in each case. The TGI in [7], in [8], in assay [9] and in assay [10] was more than 100 µM in each case.
For the molecule `c1coc(-c2c3ccc(=[N+]4CCCCC4)cc-3oc3cc(N4CCCCC4)ccc23)c1`, the GI50 in assay [2] is 0.191 µM; in assay [3], 31.3 nM; in assay [4] it was 92.1 nM; in assay [5], 0.0541 µM; in [7] it was 0.114 µM; in [8], 0.195 µM. For the same molecule, in assay [10], the GI50 was 0.036 µM. For the same molecule, the TGI in assay [2] was 0.865 µM; in assay [3], 0.105 µM; in assay [4], 0.468 µM; in [5] it was more than 100 µM; in [7], 0.854 µM; in assay [8], 1.56 µM. In addition, the TGI in assay [10] stood at 0.382 µM.
`COc1cc2c(/C=N\N=C(N)N)c[nH]c2cc1C`: the GI50 in assay [1] was more than 100 µM; in assay [2], 15.3 µM; in assay [3], 37500 nM; in assay [4], 15900 nM; in [5], 17.1 µM; in assay [6], 14.7 µM. The results for the GI50 in assay [8], in assay [9] and in assay [10] were 19.2 µM, 16.1 µM and 38.4 µM, respectively. Also, the TGI in assay [1] is more than 100 µM; in assay [2], 28.5 µM; in [3], more than 100 µM; in assay [4] it was 29.4 µM; in assay [5], 30.8 µM; in assay [6], 27.8 µM. Moreover, the TGI is 54.5 µM in assay [8], 29.6 µM in assay [9] and more than 100 µM in assay [10].
Consider `O=C(/C=C/c1ccccc1)c1ccccc1`, for which the TGI was more than 10 µM in assay [1]; more than 10 µM in assay [2]; more than 10 µM in assay [3]; more than 10 µM in assay [4]; more than 7.51 µM in assay [5]; more than 10 µM in assay [6]. Moreover, the TGI in [7], in [8], in assay [9] and in [10] was more than 10 µM throughout.
Take `COC(c1ccc(C(C)(C)C)cc1)(c1ccc(C(C)(C)C)cc1)c1ccc(C(C)(C)C)cc1`: the TGI in assay [1], in assay [2], in assay [3], in assay [4], in [5] and in assay [6] was more than 100 µM in each case. The TGI in assay [7], in [8], in assay [9] and in assay [10] was more than 100 µM in each case.
Consider `CCCc1cc(=O)n2c(C(=O)Nc3ccc(Cl)cc3C)c(C(=O)Nc3ccc(F)cc3)sc2n1`, for which the GI50 was 2.63 µM in assay [1]; 27.7 µM in assay [2]; 7770 nM in [3]; 1330 nM in assay [4]; 1.08 µM in assay [5]; 20.8 µM in [6]. Further, the GI50 in assay [7] is 8.07 µM; in assay [8], 23.8 µM; in assay [9], 6.45 µM; in [10] it was 12.3 µM. The TGI in assay [1] is 5.95 µM; in [2] it was 61 µM; in [3], 42.3 µM; in assay [4] it was 23.8 µM; in [5] it was 20.3 µM; in [6], more than 150 µM. Besides, the TGI is 46 µM in [7], 74.2 µM in assay [8], 61.4 µM in assay [9] and 39.3 µM in assay [10].
For the molecule `COc1ccc(-c2nn(-c3cccc(Cl)c3)cc2-c2cc(-c3ccccc3)[nH]c(=O)c2C#N)cc1`, the GI50 in assay [1] was 2.26 µM; in [2] it was 1.46 µM; in assay [3], 1300 nM; in assay [4] it was 21900 nM; in assay [5], 9.22 µM; in [6], 2.35 µM. The GI50 in assay [7] is 2.93 µM; in assay [8] it was 2.76 µM; in [9], 9.23 µM; in assay [10], 1.47 µM. Also, the TGI was more than 50 µM in assay [1]; 17.8 µM in [2]; 6.09 µM in [3]; more than 50 µM in [4]; more than 50 µM in assay [5]; more than 50 µM in assay [6]. For the same molecule, the TGI in assay [7] was more than 50 µM; in assay [8] it was 38.6 µM; in assay [9], more than 50 µM; in assay [10] it was 4.6 µM.
For the molecule `CC(C)[C@H](O)C(=O)N[C@@H](C)C(=O)N[C@@H]1C(=O)N(C)CCc2ccccc21`, the GI50 was more than 100 µM in [1]; more than 100 µM in assay [2]; more than 100000 nM in [3]; more than 100000 nM in [4]; more than 100 µM in assay [5]; more than 100 µM in assay [6]. The GI50 in assay [7], in assay [8], in assay [9] and in assay [10] was more than 100 µM in each case. Further, the TGI in [1], in assay [2], in assay [3], in [4], in assay [5] and in assay [6] was more than 100 µM each time. In addition, the TGI in assay [7], in [8], in assay [9] and in assay [10] was more than 100 µM throughout.
`CCc1ccc2c(c1)C(=O)c1c-2n(CCCN=[N+]=[N-])c(=O)c2cc([N+](=O)[O-])ccc12`: the GI50 in assay [1] is more than 50 µM; in assay [2] it was more than 50 µM; in assay [3], more than 50000 nM; in assay [4], more than 50000 nM; in [5] it was more than 50 µM; in assay [6] it was more than 50 µM. Further, the GI50 in assay [7], in assay [8], in assay [9] and in assay [10] was more than 50 µM each time. Besides, the TGI in assay [1], in assay [2], in assay [3], in assay [4], in [5] and in assay [6] was more than 50 µM throughout. In addition, the TGI in [7], in [8], in assay [9] and in [10] was more than 50 µM in each case.
Take `Nc1cc(Br)c(-c2nnc(CCC(=O)c3nc4ccccc4[nH]3)o2)c(Br)c1`: the GI50 was 27.6 µM in [1]; 6.82 µM in [2]; 19800 nM in assay [3]; 3440 nM in [4]; 2.89 µM in assay [5]; 3.99 µM in assay [6]. Besides, the GI50 was 6.31 µM in [7], 20.1 µM in assay [8], 3.28 µM in assay [9] and 36.5 µM in assay [10]. Moreover, the TGI in assay [1] was more than 100 µM; in assay [2], more than 100 µM; in assay [3] it was more than 100 µM; in [4] it was more than 100 µM; in assay [5], more than 100 µM; in [6] it was 20.1 µM. In addition, the TGI in assay [7] was 79 µM; in assay [8] it was more than 100 µM; in assay [9] it was more than 100 µM; in assay [10], more than 100 µM.
Turning to `O=C(/C(=C\c1c(-c2ccccc2)[nH]c2ccccc12)S(=O)(=O)c1ccccc1)c1ccccc1`, the GI50 was 35 µM in assay [1]; more than 100 µM in [2]; 3130 nM in [3]; 4980 nM in assay [4]; 6.53 µM in assay [5]; 5.9 µM in assay [6]. For the same molecule, the GI50 in assay [7], in assay [8] and in assay [10] was more than 100 µM throughout. The TGI in assay [1], in [2], in [3], in assay [4], in assay [5] and in [6] was more than 100 µM each time. In addition, the TGI in [7], in assay [8] and in assay [10] was more than 100 µM throughout.
Consider `N#CCCN1C/C(=C/c2ccc(Br)cc2)C(=O)/C(=C/c2ccc(Br)cc2)C1`, for which the GI50 in assay [1] is 2.38 µM; in [2], 1.56 µM; in [3], 2780 nM; in assay [4] it was 2550 nM; in assay [5], 0.454 µM; in [7] it was 1.77 µM. Further, the GI50 in assay [8] is 1.59 µM; in assay [10], 2.45 µM. The TGI is 26.3 µM in [1]; 3.04 µM in [2]; more than 100 µM in [3]; more than 100 µM in assay [4]; more than 100 µM in [5]; 3.51 µM in [7]. Also, the TGI in [8] was 3.76 µM; in assay [10], 5.44 µM.
With `ClCCN(CCCl)c1ccc(CNc2ccccc2)cc1`, the GI50 in assay [1] is 4.36 µM; in assay [2], 7.2 µM; in assay [3] it was 1390 nM; in assay [4], 2440 nM; in assay [5] it was 8.66 µM; in assay [6], 1.21 µM. In addition, the results for the GI50 in assay [7], in assay [8] and in assay [9] were 36.8 µM, 19 µM and 10.6 µM, respectively. The TGI in [1] was more than 100 µM; in assay [2], 43 µM; in assay [3], more than 100 µM; in assay [4] it was 54 µM; in [5], more than 100 µM; in assay [6], more than 100 µM. The TGI in assay [7], in [8] and in assay [9] was more than 100 µM in each case.

The record behind these values is PubChem BioAssay (NCI).
